Results: US8653031B2, “Process for the preparation of compositions of AT1 receptor antagonist and Angiotensin—(1-7)” (Universidade Federal de Minas Gerais, priority 2006, dated 2014)

What was measured:
[1] = test system: spontaneously hypertensive rats (SHR); assay: Antihypertensive test: blood pressure recorded by telemetry in SHR after oral administration; type: in vivo, rat
Experimental: Male, spontaneously hypertensive rats (SHR) were used, with initial age of 14-16 weeks, from the Centro de Bioterismo (CEBIO, Federal University of Minas Gerais). The animals were kept with free access to food and water and were submitted to a light-dark cycle (12 hours each).
After anesthesia with tribromoethanol (0.25 g/Kg body weight), trichotomy of the abdominal region and local asepsis was made. After adjustment of the surgical field, a median incision of 4 to 6 cm was performed in the abdomen with the implantation of the transducer catheter in the abdominal aorta. After surgery, a veterinary pentabiotic was administered (0.1 ml) via intramuscular route (i.m.). […]
Records of the cardiovascular parameters, average blood pressure and heart rate were obtained by a telemetry data acquisition system (Data Science International). This monitoring system consists of 4 basic elements: (A) a sensor catheter (model—TA11PA-C40) which was inserted into the animal's abdominal aorta for collection, processing and transmission of pulsatile blood pressure; (B) a receiving signal plate (RPC-1); (C) a muliplexor that received the signal from several receiving plates and sent them to (D) the data acquisition system itself, which collected, stored and analyzed the data by means of a specific software, ART-Gold v. […]
The acute cardiovascular effects of administering the LA compound were determined. […]

ACE = ACE (Homo sapiens, UniProt P12821); conditions: read-out: IC50 for ACE inhibition; cited from earlier work
Sequence of ACE (P12821 30-1306, species assumed): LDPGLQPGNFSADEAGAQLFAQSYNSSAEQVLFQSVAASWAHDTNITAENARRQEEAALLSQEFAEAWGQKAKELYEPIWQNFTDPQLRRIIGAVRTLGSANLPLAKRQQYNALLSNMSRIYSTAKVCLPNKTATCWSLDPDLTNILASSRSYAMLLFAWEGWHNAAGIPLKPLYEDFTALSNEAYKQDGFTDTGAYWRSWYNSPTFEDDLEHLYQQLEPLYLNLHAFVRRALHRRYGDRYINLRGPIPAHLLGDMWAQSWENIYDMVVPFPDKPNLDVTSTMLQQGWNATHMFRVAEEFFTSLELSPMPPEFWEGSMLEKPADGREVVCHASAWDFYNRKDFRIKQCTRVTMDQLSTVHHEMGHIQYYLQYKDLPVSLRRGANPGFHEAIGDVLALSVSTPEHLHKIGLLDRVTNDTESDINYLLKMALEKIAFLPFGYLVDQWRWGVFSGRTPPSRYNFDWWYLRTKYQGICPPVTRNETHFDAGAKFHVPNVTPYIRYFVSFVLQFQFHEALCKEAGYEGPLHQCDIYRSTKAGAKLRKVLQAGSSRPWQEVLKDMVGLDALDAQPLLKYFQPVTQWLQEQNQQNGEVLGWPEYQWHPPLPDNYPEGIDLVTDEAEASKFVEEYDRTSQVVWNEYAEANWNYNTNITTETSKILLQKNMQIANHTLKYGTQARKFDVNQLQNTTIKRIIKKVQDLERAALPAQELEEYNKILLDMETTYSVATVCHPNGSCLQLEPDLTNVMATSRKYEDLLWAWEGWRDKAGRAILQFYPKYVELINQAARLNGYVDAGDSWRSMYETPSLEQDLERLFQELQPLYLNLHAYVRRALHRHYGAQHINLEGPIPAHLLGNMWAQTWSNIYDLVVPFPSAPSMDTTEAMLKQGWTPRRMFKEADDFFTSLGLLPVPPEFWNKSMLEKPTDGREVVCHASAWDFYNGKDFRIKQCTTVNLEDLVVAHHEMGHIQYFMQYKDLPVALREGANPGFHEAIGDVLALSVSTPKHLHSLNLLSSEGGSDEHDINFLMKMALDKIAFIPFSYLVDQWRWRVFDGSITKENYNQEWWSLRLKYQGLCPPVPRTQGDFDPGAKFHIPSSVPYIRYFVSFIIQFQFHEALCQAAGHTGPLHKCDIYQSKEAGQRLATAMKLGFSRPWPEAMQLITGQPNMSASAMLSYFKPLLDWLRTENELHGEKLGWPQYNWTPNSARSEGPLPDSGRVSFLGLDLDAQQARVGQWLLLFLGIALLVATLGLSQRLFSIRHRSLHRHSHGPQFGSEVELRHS

Molecule | reduction in the average blood pressure ([1]; n=2, single oral dose equivalent to 1 mg Kg/day of losartan, after 5 hours (maximum for test compound)) | duration of the blood pressure lowering effect ([1]; single oral dose equivalent to 1 mg Kg/day of losartan) | IC50 (ACE)
CCCCc1nc(Cl)c(CO)n1Cc1ccc(-c2ccccc2-c2nn[nH]n2)cc1 [losartan] | −10 mmHg | 12 h | –
DRVYIHP [Ang-(1-7), Asp-Arg-Val-Tyr-Ile-His-Pro, heptapeptide of the renin-angiotensin system] | – | – | ~1 µM
